Results from ChEMBL document CHEMBL1145769, “Novel openers of Ca2+-dependent large-conductance potassium channels: symmetrical pharmacophore and electrophysiological evaluation of bisphenols” (Bioorg Med Chem Lett, 2003).

How the values were obtained:
[1] = pKa value was determined; assay type: physicochemical
[2] = target: Calcium-activated potassium channel subunit alpha-1 (Homo sapiens) (UniProt Q12791); assay: Maxi-K opening activity on cloned human (hSlo) large- conductance (BK) Ca(2+)-activated K+ channel expressed in Xenopus laevis oocytes at concentration of 20 uM; assay type: functional, cell-based; settings: Oocyte
Calcium-activated potassium channel subunit alpha-1 (Homo sapiens), sequence (Q12791 whole entry): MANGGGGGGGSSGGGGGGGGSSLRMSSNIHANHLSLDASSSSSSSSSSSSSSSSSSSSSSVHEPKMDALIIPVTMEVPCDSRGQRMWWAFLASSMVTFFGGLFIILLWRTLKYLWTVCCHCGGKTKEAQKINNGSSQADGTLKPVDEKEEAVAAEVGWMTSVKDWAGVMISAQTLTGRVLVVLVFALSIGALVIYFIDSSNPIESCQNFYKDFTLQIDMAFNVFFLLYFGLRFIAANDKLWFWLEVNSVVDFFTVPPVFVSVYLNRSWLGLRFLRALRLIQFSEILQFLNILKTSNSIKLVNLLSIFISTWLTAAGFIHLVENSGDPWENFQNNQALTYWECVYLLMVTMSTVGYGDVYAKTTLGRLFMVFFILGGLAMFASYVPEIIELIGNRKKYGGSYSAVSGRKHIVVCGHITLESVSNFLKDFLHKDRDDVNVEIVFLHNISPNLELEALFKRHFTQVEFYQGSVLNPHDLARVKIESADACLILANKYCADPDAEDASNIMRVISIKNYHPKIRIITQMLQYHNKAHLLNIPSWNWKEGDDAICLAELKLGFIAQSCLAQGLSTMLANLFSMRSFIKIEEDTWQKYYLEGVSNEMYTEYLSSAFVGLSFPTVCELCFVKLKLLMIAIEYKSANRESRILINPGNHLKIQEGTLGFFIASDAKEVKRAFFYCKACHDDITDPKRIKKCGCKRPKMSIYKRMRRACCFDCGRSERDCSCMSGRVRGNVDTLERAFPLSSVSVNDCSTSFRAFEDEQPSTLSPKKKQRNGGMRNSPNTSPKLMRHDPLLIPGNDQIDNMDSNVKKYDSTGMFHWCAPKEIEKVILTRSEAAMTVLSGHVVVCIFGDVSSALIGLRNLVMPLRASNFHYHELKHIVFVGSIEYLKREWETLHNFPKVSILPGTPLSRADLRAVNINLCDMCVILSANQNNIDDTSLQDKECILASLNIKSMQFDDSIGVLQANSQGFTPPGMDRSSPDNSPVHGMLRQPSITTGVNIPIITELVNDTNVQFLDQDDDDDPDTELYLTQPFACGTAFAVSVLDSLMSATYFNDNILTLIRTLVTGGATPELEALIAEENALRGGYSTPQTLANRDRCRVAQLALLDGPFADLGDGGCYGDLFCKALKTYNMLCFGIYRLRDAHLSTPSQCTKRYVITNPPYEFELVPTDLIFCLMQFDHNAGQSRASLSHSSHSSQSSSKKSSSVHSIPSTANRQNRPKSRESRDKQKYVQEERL

| SMILES | pKa [1] | Control current [2] [%] |
| --- | --- | --- |
| Oc1c(Cl)cccc1Cc1cccc(Cl)c1O | 8.2 | 95.9 |
| Oc1c(Br)cc(Br)cc1-c1cc(Br)cc(Br)c1O [BROMOPHENE] | 6.7 | 264 |
| O=C(Nc1cc(Cl)ccc1O)Nc1cc(Cl)ccc1O | 8.9 | 150 |
| Oc1ccc(F)cc1Sc1cc(F)ccc1O | 8.4 | 98.8 |
| CCCc1ccc(O)c(-c2cc(CCC)ccc2O)c1 | 9.3 | 95.9 |
| O=c1[nH]c2cc(C(F)(F)F)ccc2n1-c1cc(Cl)ccc1O | 9.6 | 132 |
| Oc1c(Cl)cc(Cl)c(Cl)c1Cc1c(O)c(Cl)cc(Cl)c1Cl [HEXACHLOROPHENE] | 6.6 | 237 |
| Oc1ccc(Cl)cc1Cc1cc(Cl)ccc1O [DICHLOROPHEN] | 9.3 | 74.3 |
| Oc1c(Cl)cc(Cl)cc1Cc1cc(Cl)cc(Cl)c1O | 7.7 | 245 |
| CN(C)Cc1cc(Cl)cc(Cc2cc(Cl)cc(CN(C)C)c2O)c1O | 9.6 | 94.7 |
| Oc1ccc(Br)cc1-c1cc(Br)ccc1O | 8.6 | 97 |
| Oc1c(Cl)cc(Cl)cc1Sc1cc(Cl)cc(Cl)c1O [BITHIONOL] | 6.3 | 199 |
| Oc1ccc(F)cc1Cc1cc(F)ccc1O | 9.7 | 83.2 |
| O=C(Nc1cccc(C(F)(F)F)c1)Nc1cc(Cl)ccc1O | 9.3 | 124 |
| O=C(Nc1cc(Cl)cc(Cl)c1O)Nc1cc(Cl)cc(Cl)c1O | 7.4 | 196 |
